One data set has as its target T1, meltrin α (Homo sapiens, UniProt O43184, E208G/T209S).
T1 construct: had been converted to mature meltrin α having the prodomain deleted (molecular weight 68 kDa); made in house; host or cells: COS-1
T1 sequence (O43184 208-738 isoform O43184-2 E208G/T209S): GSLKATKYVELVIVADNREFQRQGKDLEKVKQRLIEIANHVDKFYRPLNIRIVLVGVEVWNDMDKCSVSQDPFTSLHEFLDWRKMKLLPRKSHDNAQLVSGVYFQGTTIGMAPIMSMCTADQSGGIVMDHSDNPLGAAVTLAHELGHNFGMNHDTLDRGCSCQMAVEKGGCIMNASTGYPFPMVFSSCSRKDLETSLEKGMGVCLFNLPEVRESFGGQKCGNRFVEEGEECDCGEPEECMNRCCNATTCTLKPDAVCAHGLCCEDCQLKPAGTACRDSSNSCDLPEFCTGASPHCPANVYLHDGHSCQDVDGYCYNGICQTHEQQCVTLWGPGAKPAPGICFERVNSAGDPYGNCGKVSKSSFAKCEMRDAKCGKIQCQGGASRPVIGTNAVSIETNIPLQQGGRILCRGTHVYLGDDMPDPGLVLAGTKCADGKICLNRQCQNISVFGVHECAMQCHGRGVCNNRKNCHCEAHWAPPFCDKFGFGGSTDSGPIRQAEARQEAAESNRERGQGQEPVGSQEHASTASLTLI
In words: Inhibition of protease activity of meltrin α (rhIGF-BP3 cleavage, western blotting). Type of data set: biochemical. Conditions: low molecular weight compound 10 μg/mL; rhIGF-BP3 band. How it is done: Thrombin (Amersham Biosciences) was added to the purified meltrin α-STFLAG prepared in Example 5, and mixture was kept at 25° C. for 15 hours. When the solution after the reaction was examined by repeating the procedure of Example 5, the human meltrin α containing the prodomain (molecular weight 92 kDa) had been converted to mature meltrin α having the prodomain deleted (molecular weight 68 kDa). For measuring the enzymatic activity of the meltrin α, the solution after the prodomain cleavage with thrombin followed by inactivation of the thrombin by 10 mM APMSF (Wako Pure Chemical Industries, Ltd.) was used. The disappearance of the thrombin activity was confirmed by using the synthetic substrate for the thrombin on the reaction solution. […]
The anti-human meltrin α antibodies produced in Examples 6 and 7 were evaluated on their activity for inhibiting protease activity of meltrin α by using the protease activity assay system of Example 9. […] After the reaction, the reaction solution was electrophoresed by SDS-PAGE, and the rhIGF-BP3 was detected by western blotting.
According to the method of Example 9, activity of the low molecular weight compound for inhibiting protease activity of the meltrin α was assayed as described below. […] After the reaction, the reaction solution was electrophoresed by SDS-PAGE, and the rhIGF-BP3 was detected by western blotting.

A further data set concerns adipocyte. As to the kind of experiment: Toxicity for the adipocyte (WST1 assay). Type of data set: cell-based, human. The note with it: at the concentration used in the assay (0.3 to 10 μg/mL). How it is done: Toxicity of the test substance to the adipocyte was examined by WST1 assay. More specifically, Premix WST-1 Cell Proliferation Assay System (Takara Shuzo Co., Ltd.) was added at 10 μL/well, and after incubating at 37° C. for 60 minutes in a CO2 incubator, absorbance (450 nm-650 nm) was measured to examine influence on the adipocyte.
(§1) According to the method of Example 15, M82463 was added to the human preadipocyte incubation system at a concentration of 0.3 to 10 μg/mL so that the final concentration of the DMSO was 0.2%. As a control, a group having only the DMSO added to a final concentration of 0.2% was used.
On the technique in general: Tetrazolium assays rely on reduction of a dye to a coloured formazan, in cell work by metabolically active cells.

Another data set deals with human preadipocyte. In words: Adipocyte proliferation and differentiation, neutral fat accumulation (Adipo Red). Type of data set: cell-based. Conditions: 0.3 to 10 μg/mL; DMSO 0.2%. How it is done: The differentiation medium was prepared by adding supplement kit PGM SingleQuots, #PT-9500, Lot.08101163 (Sanko Junyaku Co., Ltd.) to 100 mL of growth medium. 50 μL of the supernatant was removed from the 96 well plate prepared in Example 12, and 50 μL of the siRNA or the antisense oligonucleotide prepared in the differentiation medium was added, and incubation was conducted in a CO2 incubator for 5 days to 15 days.
The amount of neutral fat accumulated in the adipocyte was determined by fluorometry using Adipo Red stain.
After taking the 96 well plate out of the CO2 incubator, the plate was allowed to stand until it cooled to room temperature. The plate was centrifuged at 300 g (1200 rpm) for 10 minutes at room temperature to remove the medium. Next, the plate was gently washed with 200 μL/well of PBS (Sigma), and 200 μL/well of PBS was added to the well.
Next, 5 μL/well of Adipo Red Assay Reagent (Adipo Red, Cat. #PT-7009, Lot.3F0497, A Cambrex Company) was added, and the plate was allowed to stand at room temperature for at least 10 minutes to thereby stain the neutral fat that had accumulated in the adipocyte. The fluorescence intensity was measured in a fluorometer at an excitation wavelength of 485 nm and an emission wavelength of 535 nm to thereby determine the fat accumulation.
as §1
After preparation of the antibody to the concentration of 0.100 mg/mL with physiological saline, 9 volumes of adipocyte differentiation medium was added to 1 volume of the antibody solution, and the solution was sterilized by filtering through a filter having a diameter of 0.22 μm (MILLEX-GV 0.22 μm Filter unit, 3slgv013SL, Lot. R2NN83622, MILLIPORE). […]

For the compound `Oc1c(C(Nc2ccccn2)c2ccccc2)ccc2cccnc12` (stereo not drawn) [M82463, 7-[phenyl(pyridine-2-ylamino)methyl]quinoline-8-ol], the “activity for inhibiting protease activity of meltrin α” value at meltrin α is recorded as “suppressed the disappearance of the rhIGF-BP3”. For the same compound, the cytotoxicity result in the data set on adipocyte was “no cytotoxicity was found”. Besides, in the data set with human preadipocyte, the “adipocyte proliferation and differentiation” value was “suppressed the adipocyte proliferation and differentiation in a dose dependent manner”.

For the origin of these results see patent publication US20080292619A1, “Pharmaceutical Composition Containing Meltrin Antagonist” (MOCHIDA PHARMACEUTICAL CO., LTD., priority 2004, published 2008).
